Test results as given in patent publication US20230219978A1, “COMPOUND HAVING MACROCYCLIC STRUCTURE AND USE THEREOF” (SCINNOHUB PHARMACEUTICAL CO., LTD, priority 2020, published 2023).

Assays:
Format in all cases: biochemical
SRC = target: T1, SRC (Homo sapiens, UniProt P12931); experiment: In vitro kinase activity assay (mobility shift assay), SRC; conditions: ATP 19 μM, reaction time 30 min
T1 construct: purchased Carna 08-173
Description: (§1) The IC50 (half inhibitory concentration) values of the compounds were used as an indicator to evaluate the inhibitory effect of the compound on RET wild-type, RET mutant, TRKa, SRC, BTK and/or mutated BTK kinase.
(§2) Using the method of Mobility shift assay, the compounds were tested for inhibitory activity against the following kinases: RET wild type, RET mutant, TRKa, SRC, BTK and/or mutated BTK. The initial concentration of the test compound was 1000 nM, 3-fold dilution, 10 concentrations, detected in a well for each concentration.
(§3) 20 mM hydroxyethylpiperazineethanesulfonic acid (Hepes) (pH 7.5) buffer, 10 mM MgCl2, 1 mM ethylene glycol bis(aminoethyl ether)tetraacetic acid (EGTA), 0.02% polyoxyethylene lauryl ether (Brij35), 0.02 mg/ml […] (BSA), 0.1 mM Na3VO4, 2 mM dithiothreitol (DTT), 1% DMSO.
(§4) The test compounds were dissolved in 100% dimethyl sulfoxide (DMSO) system, and prepared as 10 mM for use, and stored in a nitrogen cabinet away from light.
(§5) • (1) Preparing 1× kinase reaction buffer. • (2) Preparation of compound concentration gradient: the initial concentration of the compounds was 1000 nM, which was diluted as 100-fold final concentration of solution in 100% dimethyl sulfoxide (DMSO) in a 384-well plate. The compound was accurately 3-fold diluted with the kinase buffer solution, 10 concentrations in total, and the final concentration was 0.0508 nM. The 100-fold final concentration of solution in 100% dimethyl sulfoxide (DMSO) was obtained by dilution in 384 source plate. The liquid separator Echo 550 was used to transfer 250 nl of 100-fold final concentration of compound to the target 384 well plate. 250 nl of DMSO was added to the positive and negative control wells. • (3) 2.5-fold final concentration of kinase solution was prepared by the 1× kinase buffer. • (4) 10 4, of 2.5-fold final concentration of kinase solution was added to the compound well and the positive control well, respectively; 10 4, of 1× kinase buffer was added to the negative control well. • (5) After centrifuging at 1000 rpm for 30 second, the reaction plate was shaken and mixed, followed by incubation at room temperature for 10 min. • (6) a mixed solution of 25/15-fold final concentration of adenosine triphosphate (ATP) and kinase substrate was prepared by 1× kinase buffer. • (7) The mixed solution (15 μL) of 25/15-fold final concentration of adenosine triphosphate (ATP) and substrate was added to initiate the reaction. • (8) 384-well plate was centrifuged at 1000 rpm for 30 second, shaken and mixed well, and then incubated at room temperature for 30-240 min. • (9) After stopping the kinase reaction, the plate was centrifugated at 1000 rpm for 30 second, shaken and mixed well. • (10)The conversion rate was read with Caliper EZ Reader.
(§6) wherein Conversion%_sample is the conversion rate reading of the sample; Conversion%_min: the mean value of negative control wells, representing the conversion rate reading of wells without enzymes; Conversion%_max: the mean value of positive control wells, representing the conversion rate reading of wells without compound inhibition.
(§7) The log value of concentration was taken as the X axis, and the percentage inhibition rate was taken as the Y axis. Graphpad 6.0 analysis software was used to fit the dose-response curve, so as to obtain the IC50 value of each compound on the enzyme activity

RET wt = target: T2, RET wt (Homo sapiens, UniProt P07949); experiment: In vitro kinase activity assay (mobility shift assay), RET wild type; conditions: ATP 16 μM, reaction time 60 min
T2 construct: purchased Carna 08-159
Summary of the method: (§8)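 Mobility-shift kinase assay in 20 mM Hepes pH 7.5, 10 mM MgCl2, EGTA, Brij35, BSA, Na3VO4, DTT, 1% DMSO. Compound was preincubated with kinase 10 min, then ATP and substrate were added for 30-240 min at room temperature. Ten 3-fold dilutions from 1000 nM final; IC50 from fitted conversion-rate inhibition.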

BTK = target: T3, BTK (Homo sapiens, UniProt Q06187); experiment: In vitro kinase activity assay (mobility shift assay), BTK; conditions: ATP 71 μM, reaction time 30 min
T3 construct: purchased Carna 08-180
Summary of the method: as §8

RET G810R = target: T4, RET G810R (Homo sapiens, UniProt P07949, G810R); experiment: In vitro kinase activity assay (mobility shift assay), RET G810R; conditions: ATP 201 μM, reaction time 4 h
T4 construct: purchased Proqinase 1724-0000-1
Summary of the method: as §8

RET V804M = target: T5, RET V804M (Homo sapiens, UniProt P07949, V804M); experiment: In vitro kinase activity assay (mobility shift assay), RET V804M; conditions: ATP 5.4 μM, reaction time 60 min
T5 construct: purchased signalchem R02-12GG
Summary of the method: as §8

BTK C481S = target: T6, BTK C481S (Homo sapiens, UniProt Q06187, C481S); experiment: In vitro kinase activity assay (mobility shift assay), BTK C481S; conditions: ATP 90 μM, reaction time 30 min
T6 construct: purchased Carna 08-547
Description: as §1, §2, §3, §4, §5, §6, §7

TRKa = target: T7, TRKa (Homo sapiens, UniProt P04629); experiment: In vitro kinase activity assay (mobility shift assay), TRKa; conditions: ATP 47.8 μM, reaction time 30 min
T7 construct: purchased Carna 08-186
Summary of the method: as §8

T6 sequence (Q06187 whole entry C481S): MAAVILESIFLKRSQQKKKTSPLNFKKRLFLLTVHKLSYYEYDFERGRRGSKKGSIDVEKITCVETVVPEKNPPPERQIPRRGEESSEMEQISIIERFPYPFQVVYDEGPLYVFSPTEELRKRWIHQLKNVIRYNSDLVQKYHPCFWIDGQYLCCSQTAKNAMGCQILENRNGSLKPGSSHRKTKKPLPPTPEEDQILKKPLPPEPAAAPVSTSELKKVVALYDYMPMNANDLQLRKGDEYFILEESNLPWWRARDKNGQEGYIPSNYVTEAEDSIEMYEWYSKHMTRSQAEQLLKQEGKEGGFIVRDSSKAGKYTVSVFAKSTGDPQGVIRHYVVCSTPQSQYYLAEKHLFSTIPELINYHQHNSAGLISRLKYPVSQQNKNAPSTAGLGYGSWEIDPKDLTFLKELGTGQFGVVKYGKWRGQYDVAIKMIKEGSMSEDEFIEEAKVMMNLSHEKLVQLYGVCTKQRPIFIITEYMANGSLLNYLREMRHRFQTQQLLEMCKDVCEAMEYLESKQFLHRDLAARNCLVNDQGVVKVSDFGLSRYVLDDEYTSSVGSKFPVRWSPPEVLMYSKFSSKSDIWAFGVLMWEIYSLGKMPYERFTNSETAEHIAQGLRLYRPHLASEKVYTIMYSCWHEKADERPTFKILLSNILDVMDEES
T2 sequence (P07949 29-1114): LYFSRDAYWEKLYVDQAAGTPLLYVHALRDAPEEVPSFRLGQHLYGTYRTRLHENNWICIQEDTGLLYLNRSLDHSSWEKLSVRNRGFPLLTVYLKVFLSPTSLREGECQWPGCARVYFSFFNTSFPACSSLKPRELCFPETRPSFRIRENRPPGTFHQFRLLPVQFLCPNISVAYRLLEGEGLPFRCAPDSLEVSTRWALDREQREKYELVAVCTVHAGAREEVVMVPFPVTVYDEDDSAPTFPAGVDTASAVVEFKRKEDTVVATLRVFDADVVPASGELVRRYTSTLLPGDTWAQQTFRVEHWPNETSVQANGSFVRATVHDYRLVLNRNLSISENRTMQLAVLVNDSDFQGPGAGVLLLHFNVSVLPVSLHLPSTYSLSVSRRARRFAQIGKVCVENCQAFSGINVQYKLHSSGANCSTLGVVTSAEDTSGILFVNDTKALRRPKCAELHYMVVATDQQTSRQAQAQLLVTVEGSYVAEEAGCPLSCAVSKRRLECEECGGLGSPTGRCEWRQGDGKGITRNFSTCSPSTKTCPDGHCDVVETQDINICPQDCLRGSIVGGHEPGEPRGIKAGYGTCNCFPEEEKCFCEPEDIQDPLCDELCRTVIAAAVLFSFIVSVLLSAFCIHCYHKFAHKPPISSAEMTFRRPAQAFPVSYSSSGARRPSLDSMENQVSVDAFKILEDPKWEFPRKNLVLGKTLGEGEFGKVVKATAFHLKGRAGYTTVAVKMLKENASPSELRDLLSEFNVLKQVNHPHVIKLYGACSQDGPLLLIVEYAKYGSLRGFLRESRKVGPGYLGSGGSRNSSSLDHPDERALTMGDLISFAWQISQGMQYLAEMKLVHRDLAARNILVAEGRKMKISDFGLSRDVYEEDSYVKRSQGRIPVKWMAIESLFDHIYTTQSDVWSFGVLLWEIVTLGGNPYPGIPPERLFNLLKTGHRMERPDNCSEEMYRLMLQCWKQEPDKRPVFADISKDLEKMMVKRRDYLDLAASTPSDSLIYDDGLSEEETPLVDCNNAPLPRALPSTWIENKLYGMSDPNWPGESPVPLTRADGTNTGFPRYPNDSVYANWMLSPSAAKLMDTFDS
T4 sequence (P07949 29-1114 G810R): as the sequence (P07949 29-1114) above, with G782R counted along it
T1 sequence (P12931 whole entry): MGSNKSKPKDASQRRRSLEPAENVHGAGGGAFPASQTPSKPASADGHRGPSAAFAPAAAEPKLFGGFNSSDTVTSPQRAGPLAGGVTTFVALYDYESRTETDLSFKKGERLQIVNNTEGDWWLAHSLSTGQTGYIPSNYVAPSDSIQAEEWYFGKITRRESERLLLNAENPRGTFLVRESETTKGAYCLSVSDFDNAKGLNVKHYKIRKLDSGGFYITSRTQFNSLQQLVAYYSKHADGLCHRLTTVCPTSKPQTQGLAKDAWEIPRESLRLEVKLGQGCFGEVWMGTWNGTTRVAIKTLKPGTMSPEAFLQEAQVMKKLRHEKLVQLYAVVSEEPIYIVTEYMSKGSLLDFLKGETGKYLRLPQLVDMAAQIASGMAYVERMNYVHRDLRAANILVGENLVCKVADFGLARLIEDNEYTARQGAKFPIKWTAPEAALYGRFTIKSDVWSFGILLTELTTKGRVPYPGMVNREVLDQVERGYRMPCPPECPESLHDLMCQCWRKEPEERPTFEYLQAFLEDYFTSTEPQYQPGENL
T7 sequence (P04629 33-796): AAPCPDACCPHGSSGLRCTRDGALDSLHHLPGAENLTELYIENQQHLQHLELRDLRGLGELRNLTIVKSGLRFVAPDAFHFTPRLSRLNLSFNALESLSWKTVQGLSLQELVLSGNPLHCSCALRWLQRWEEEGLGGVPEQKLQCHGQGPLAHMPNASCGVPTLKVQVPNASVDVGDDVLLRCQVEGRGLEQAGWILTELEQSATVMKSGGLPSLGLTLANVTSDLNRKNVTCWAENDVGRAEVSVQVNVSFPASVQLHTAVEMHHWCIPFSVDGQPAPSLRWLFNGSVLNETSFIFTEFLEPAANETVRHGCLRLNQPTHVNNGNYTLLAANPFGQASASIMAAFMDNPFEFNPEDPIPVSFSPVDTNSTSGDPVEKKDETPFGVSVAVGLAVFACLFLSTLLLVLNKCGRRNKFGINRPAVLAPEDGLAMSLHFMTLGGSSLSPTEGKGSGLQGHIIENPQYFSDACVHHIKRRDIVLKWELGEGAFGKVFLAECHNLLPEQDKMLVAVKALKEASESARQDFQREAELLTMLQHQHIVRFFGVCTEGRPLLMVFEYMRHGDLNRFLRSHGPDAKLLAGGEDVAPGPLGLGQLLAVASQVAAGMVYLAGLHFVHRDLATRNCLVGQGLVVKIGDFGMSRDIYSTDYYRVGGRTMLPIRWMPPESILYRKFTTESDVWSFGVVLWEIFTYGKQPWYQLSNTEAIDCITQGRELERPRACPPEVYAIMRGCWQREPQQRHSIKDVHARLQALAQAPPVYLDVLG
T5 sequence (P07949 29-1114 V804M): as the sequence (P07949 29-1114) above, with V776M counted along it
T3 sequence (Q06187 whole entry): as the sequence (Q06187 whole entry C481S) above, with S481C counted along it

## CNc1c(-c2ccccc2)c2nc3c(cnn13)C(=O)NC[C@H](C)Oc1ncc(F)cc1CN2 [Example 64, (S, 1^3E, 1^4E)-4^5-fluoro-6-methyl-1^7-(methylamino)-1^6-phenyl-5-oxa-2,8-diaza-1(5,3)-pyrazolopyrimidin-4(3,2)-pyridinacyclononaphan-9-one]
SRC
  IC50: 0.061 µM
RET wt
  IC50: 0.128 µM
BTK
  IC50: > 1 µM

## COC(=O)Nc1ccc(-c2cn3ncc4c3nc2NCc2cc(F)cnc2O[C@@H](C)CNC4=O)c(Cl)c1 [Compound 27]
SRC
  IC50: 0.0384 µM
RET G810R
  IC50: 0.0172 µM
RET V804M
  IC50: 0.00325 µM
RET wt
  IC50: 0.000629 µM
BTK
  IC50: 0.0154 µM
BTK C481S
  IC50: 0.0169 µM

## CNc1ccc(-c2c3nc4c(cnn4c2N)C(=O)NC[C@H](C)Oc2ncc(F)cc2CN3)cc1 [Example 54, (S, 1^3E, 1^4E)-1^7-amino-4^5-fluoro-6-methyl-1^6-(4-(methylamino)phenyl)-5-oxo-2,8-diaza-1(5,3)-pyrazolo[1,5-a]pyrimidin-4(3,2)-pyridinacyclononaphan-9-one]
SRC
  IC50: 0.0021 µM
RET G810R
  IC50: > 1 µM
RET V804M
  IC50: > 1 µM
RET wt
  IC50: 0.105 µM
BTK
  IC50: 0.048 µM
BTK C481S
  IC50: 0.104 µM

## C[C@H]1CNC(=O)c2cnn3cc(-c4ccccn4)c(nc23)NCc2cc(F)cnc2O1 [Compound 33]
SRC
  IC50: 0.196 µM
RET wt
  IC50: 0.407 µM
BTK
  IC50: > 10 µM

## COC(=O)Nc1ccc(-c2cn3ncc4c3nc2NCc2cc(F)cnc2O[C@@H](C)CNC4=O)cc1 [Compound 30, methyl (4-((S, 1^3E, 1^4E)-4^5-fluoro-6-methyl-9-oxo-5-oxa-2,8-diaza-1(5,3)-pyrazolo[1,5-a]pyrimidin-4(3,2)-pyridinacyclononaphan-1^6-yl)phenyl) carbamate]
SRC
  IC50: 3.11 µM
RET G810R
  IC50: 0.0151 µM
TRKa
  IC50: > 10 µM
RET V804M
  IC50: 0.076 µM
RET wt
  IC50: 0.0051 µM
BTK
  IC50: 5.18 µM

## C[C@H]1CNC(=O)c2cnn3cc(-c4ccccc4)c(nc23)NCc2cc(F)cnc2O1 [Example 1, (S, 1^3E, 1^4E)-4^5-fluoro-6-methyl-1^6-phenyl-5-oxa-2,8-diaza-1(5,3)-pyrazolo[1,5-a]pyrimidina-4(3,2)-pyridinacyclononaphan-9-one]
SRC
  IC50: 0.0108 µM
RET G810R
  IC50: 0.0421 µM
TRKa
  IC50: > 10 µM
RET V804M
  IC50: > 10 µM
RET wt
  IC50: 0.011 µM
BTK
  IC50: 0.0335 µM
BTK C481S
  IC50: 0.0313 µM

## C[C@H]1CNC(=O)c2cnn3c(N)c(-c4ccc(NC(=O)OCC5CC5)cc4)c(nc23)NCc2cc(F)cnc2O1 [Example 63, cyclopropylmethyl (4-((S, 1^3E, 1^4E)-1^7-amino-4^5-fluoro-6-methyl-9-oxo-5-oxo-2,8-diaza-1(5,3)-pyrazolo[1,5-a]pyrimidin-4(3,2)-pyridinacyclononaphan-1^6-yl)phenyl)carbamate]
SRC
  IC50: 0.0028 µM
RET G810R
  IC50: 0.022 µM
TRKa
  IC50: 0.065 µM
RET V804M
  IC50: 0.0035 µM
RET wt
  IC50: 0.0012 µM
BTK
  IC50: 0.033 µM

## C[C@H]1CNC(=O)c2cnn3cc(-c4ccc(Oc5ccccc5)cc4)c(nc23)NCc2cc(F)cnc2O1 [Compound 10, (S, 1^3E, 1^4E)-1^6-(4-phenoxyphenyl)-4^5-fluoro-6-methyl-5-oxa-2,8-diaza-1(5,3)-pyrazolo[1,5-a]pyrimidina-4(3,2)-pyridinacyclononaphan-9-one]
SRC
  IC50: > 10 µM
RET G810R
  IC50: > 10 µM
TRKa
  IC50: > 10 µM
RET V804M
  IC50: > 10 µM
RET wt
  IC50: 0.144 µM
BTK
  IC50: > 10 µM
BTK C481S
  IC50: > 10 µM

## C[C@H]1CNC(=O)c2cnn3cc(-c4ccc(N5CCOC5=O)cc4Cl)c(nc23)NCc2cc(F)cnc2O1 [Compound 40, (S, 1^3E, 1^4E)-1^6-(2-chloro-4-(2-oxaoxazolidin-3-yl)phenyl)-4^5-fluoro-6-methyl-5-oxa-2,8-diaza-1(5,3)-pyrazolo[1,5-a]pyrimidin-4(3,2)-pyridinacyclononaphan-9-one]
SRC
  IC50: 0.105 µM
RET wt
  IC50: 0.465 µM
BTK
  IC50: 0.176 µM

## CC(=O)Nc1ccc(-c2cn3ncc4c3nc2NCc2cc(F)cnc2O[C@@H](C)CNC4=O)cc1 [Compound 18]
SRC
  IC50: > 10 µM
RET G810R
  IC50: > 10 µM
RET V804M
  IC50: > 10 µM
RET wt
  IC50: > 10 µM
BTK
  IC50: > 10 µM
BTK C481S
  IC50: > 10 µM

## CC(C)OC(=O)Nc1ccc(-c2cn3ncc4c3nc2NCc2cc(F)cnc2O[C@@H](C)CNC4=O)cc1 [Compound 31, iso-propyl (4-((S, 1^3E, 1^4E)-4^5-fluoro-6-methyl-9-oxo-5-oxa-2,8-diaza-1(5,3)-pyrazolo[1,5-a]pyrimidin-4(3,2)-pyridinacyclononaphan-1^6-yl)phenyl)carbamate]
SRC
  IC50: 0.843 µM
RET G810R
  IC50: 0.0123 µM
TRKa
  IC50: > 10 µM
RET wt
  IC50: 0.00405 µM
BTK
  IC50: > 10 µM

## C[C@H]1CNC(=O)c2cnn3c(N)c(-c4ccccc4F)c(nc23)NCc2cc(F)cnc2O1 [Example 66]
RET G810R
  IC50: 0.0537 µM
TRKa
  IC50: 0.101 µM
RET wt
  IC50: 0.0013 µM
BTK
  IC50: 0.0017 µM
BTK C481S
  IC50: 0.00145 µM

## CNC(=O)c1ccc(-c2cn3ncc4c3nc2NCc2cc(F)cnc2O[C@@H](C)CNC4=O)cc1 [Compound 19, 4-((S, 1^3E, 1^4E)-4^5-fluoro-6-methyl-9-oxo-5-oxa-2,8-diaza-1(5,3)-pyrazolo[1,5-a]pyrimidin-4(3,2)-pyridinacyclononaphan-1^6-yl)—N-methylbenz amide]
SRC
  IC50: > 10 µM
RET G810R
  IC50: > 10 µM
RET V804M
  IC50: > 10 µM
RET wt
  IC50: 0.0489 µM
BTK
  IC50: > 10 µM
BTK C481S
  IC50: > 10 µM

## C[C@H]1CNC(=O)c2cnn3cc(N4CCOCC4)c(nc23)NCc2cc(F)cnc2O1 [Compound 17, (S, 1^3E, 1^4E)-4^5-fluoro-6-methyl-1^6-morpholino-5-oxa-2,8-diaza-1(5,3)-pyrazolo[1,5-a]pyrimidina-4(3,2)-pyridinacyclononaphan-9-one]
TRKa
  IC50: > 10 µM
RET wt
  IC50: > 10 µM
BTK
  IC50: > 10 µM
BTK C481S
  IC50: > 10 µM

## C[C@H]1CNC(=O)c2cnn3c(N)c(-c4ccccc4)c(nc23)NCc2cc(F)cnc2O1 [Compound 28, (S, 1^3E, 1^4E)-1^7-amino-4^5-fluoro-6-methyl-1^6-phenyl-5-oxa-2,8-diaza-1(5,3)-pyrazolino[1,5-a]pyrimidin-4(3,2)-pyridinacyclononaphan-9-one]
SRC
  IC50: 0.000456 µM
RET G810R
  IC50: 0.012 µM
RET V804M
  IC50: 0.00918 µM
RET wt
  IC50: 0.000359 µM
BTK
  IC50: 0.00111 µM
BTK C481S
  IC50: 0.00096 µM

## C[C@H]1CNC(=O)c2cnn3cc(-c4cnn(C)c4)c(nc23)NCc2cc(F)cnc2O1 [Compound 24]
TRKa
  IC50: > 10 µM
RET wt
  IC50: 0.02 µM
BTK
  IC50: 0.296 µM
BTK C481S
  IC50: 0.398 µM

## Cc1ccc(-c2c3nc4c(cnn4c2N)C(=O)NC[C@H](C)Oc2ncc(F)cc2CN3)cc1 [Example 56]
SRC
  IC50: 0.00013 µM
RET G810R
  IC50: 0.0497 µM
RET wt
  IC50: 0.0012 µM
BTK
  IC50: 0.0015 µM
BTK C481S
  IC50: 0.00096 µM
